Laboratory results as given in ChEMBL document CHEMBL1126959, “HMG-CoA reductase inhibitors: design, synthesis, and biological activity of tetrahydroindazole-substituted 3,5-dihydroxy-6-heptenoic acid sodium salts” (J Med Chem, 1993).
One block for each compound: values may come before it.

Experiments:
[1] = target: T1, 3-hydroxy-3-methylglutaryl-coenzyme A reductase (Rattus norvegicus, UniProt P51639); experiment: Inhibitory activity against partially purified rat liver HMG-CoA reductase in vitro; 0.027-0.046
T1 sequence (P51639 whole entry): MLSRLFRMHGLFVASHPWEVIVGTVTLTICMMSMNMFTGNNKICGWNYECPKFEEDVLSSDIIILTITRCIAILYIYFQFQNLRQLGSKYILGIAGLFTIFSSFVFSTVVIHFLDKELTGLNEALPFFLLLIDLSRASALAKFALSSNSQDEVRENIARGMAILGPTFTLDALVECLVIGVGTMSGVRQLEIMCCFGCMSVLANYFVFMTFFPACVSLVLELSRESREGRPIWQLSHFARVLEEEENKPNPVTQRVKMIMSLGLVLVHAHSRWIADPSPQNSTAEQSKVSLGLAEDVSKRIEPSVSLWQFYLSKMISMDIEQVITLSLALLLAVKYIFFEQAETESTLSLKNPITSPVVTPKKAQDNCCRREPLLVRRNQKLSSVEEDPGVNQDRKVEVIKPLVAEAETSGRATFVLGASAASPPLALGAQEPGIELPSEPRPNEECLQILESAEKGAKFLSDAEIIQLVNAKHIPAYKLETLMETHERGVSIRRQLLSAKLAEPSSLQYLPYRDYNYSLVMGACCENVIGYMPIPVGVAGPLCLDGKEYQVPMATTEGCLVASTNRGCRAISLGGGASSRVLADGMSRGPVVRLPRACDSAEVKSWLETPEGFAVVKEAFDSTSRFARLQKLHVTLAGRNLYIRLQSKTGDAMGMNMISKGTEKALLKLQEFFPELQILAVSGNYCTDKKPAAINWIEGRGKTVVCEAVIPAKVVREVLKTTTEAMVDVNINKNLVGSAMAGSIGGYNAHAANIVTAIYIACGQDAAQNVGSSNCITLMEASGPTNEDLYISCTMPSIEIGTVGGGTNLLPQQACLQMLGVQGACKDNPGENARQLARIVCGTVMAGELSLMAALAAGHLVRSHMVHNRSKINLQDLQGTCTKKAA

[2] = system: HepG2; experiment: Tested for ability to inhibit incorporation of [14C]acetate into cholesterol in cultured human hepatoma (HEP-G2) cells; 0.44-3.0; type: functional, cell-based
[3] = target: T1, 3-hydroxy-3-methylglutaryl-coenzyme A reductase; experiment: Inhibitory activity against partially purified rat liver HMG-CoA reductase in vitro; 0.07-0.27
[4] = system: HepG2; experiment: Tested for ability to inhibit incorporation of [14C]acetate into cholesterol in cultured human hepatoma (HEP-G2) cells; 0.56-2.2; type: functional, cell-based
[5] = system: HepG2; experiment: Tested for ability to inhibit incorporation of [14C]acetate into cholesterol in cultured human hepatoma (HEP-G2) cells; 0.061-0.10; type: functional, cell-based
[6] = target: T1, 3-hydroxy-3-methylglutaryl-coenzyme A reductase; experiment: Inhibitory activity against partially purified rat liver HMG-CoA reductase in vitro; 0.23-0.71
[7] = system: HepG2; experiment: Tested for ability to inhibit incorporation of [14C]acetate into cholesterol in cultured human hepatoma (HEP-G2) cells; 0.051-0.12; type: functional, cell-based
[8] = target: T1, 3-hydroxy-3-methylglutaryl-coenzyme A reductase; experiment: Inhibitory activity against partially purified rat liver HMG-CoA reductase in vitro; 0.021-0.036
[9] = target: T1, 3-hydroxy-3-methylglutaryl-coenzyme A reductase; experiment: Inhibitory activity against partially purified rat liver HMG-CoA reductase in vitro; 0.16-0.24
[10] = system: HepG2; experiment: Tested for ability to inhibit incorporation of [14C]acetate into cholesterol in cultured human hepatoma (HEP-G2) cells; 0.0071-23; type: functional, cell-based
[11] = system: HepG2; experiment: Tested for ability to inhibit incorporation of [14C]acetate into cholesterol in cultured human hepatoma (HEP-G2) cells; 0.11-0.27; type: functional, cell-based
[12] = target: T1, 3-hydroxy-3-methylglutaryl-coenzyme A reductase; experiment: Inhibitory activity against partially purified rat liver HMG-CoA reductase in vitro; 0.047-0.098
[13] = target: T1, 3-hydroxy-3-methylglutaryl-coenzyme A reductase; experiment: Inhibitory activity against partially purified rat liver HMG-CoA reductase in vitro; 0.0050-0.016
[14] = system: HepG2; experiment: Tested for ability to inhibit incorporation of [14C]acetate into cholesterol in cultured human hepatoma (HEP-G2) cells; 0.22-0.48; type: functional, cell-based
[15] = target: T1, 3-hydroxy-3-methylglutaryl-coenzyme A reductase; experiment: Inhibitory activity against partially purified rat liver HMG-CoA reductase in vitro; 3.1-9.1
[16] = target: T1, 3-hydroxy-3-methylglutaryl-coenzyme A reductase; experiment: Inhibitory activity against partially purified rat liver HMG-CoA reductase in vitro; 2.6-4.8
[17] = target: T1, 3-hydroxy-3-methylglutaryl-coenzyme A reductase; experiment: Inhibitory activity against partially purified rat liver HMG-CoA reductase in vitro; 1.9-5.3
[18] = target: T1, 3-hydroxy-3-methylglutaryl-coenzyme A reductase; experiment: Inhibitory activity against partially purified rat liver HMG-CoA reductase in vitro; 0.41-0.73
[19] = system: HepG2; experiment: Tested for ability to inhibit incorporation of [14C]acetate into cholesterol in cultured human hepatoma (HEP-G2) cells; 1.3-2.3; type: functional, cell-based
[20] = target: T1, 3-hydroxy-3-methylglutaryl-coenzyme A reductase; experiment: Inhibitory activity against partially purified rat liver HMG-CoA reductase in vitro; 1.7-2.6
[21] = system: HepG2; experiment: Tested for ability to inhibit incorporation of [14C]acetate into cholesterol in cultured human hepatoma (HEP-G2) cells; 0.053-0.12; type: functional, cell-based
[22] = target: T1, 3-hydroxy-3-methylglutaryl-coenzyme A reductase; experiment: Inhibitory activity against partially purified rat liver HMG-CoA reductase in vitro; 0.038-0.18
[23] = system: HepG2; experiment: Tested for ability to inhibit incorporation of [14C]acetate into cholesterol in cultured human hepatoma (HEP-G2) cells; 0.70-1.4; type: functional, cell-based
[24] = target: T1, 3-hydroxy-3-methylglutaryl-coenzyme A reductase; experiment: Inhibitory activity against partially purified rat liver HMG-CoA reductase in vitro; 0.17-0.61
[25] = system: HepG2; experiment: Tested for ability to inhibit incorporation of [14C]acetate into cholesterol in cultured human hepatoma (HEP-G2) cells; 2.9-4.6; type: functional, cell-based

- IC50 [3]: 140 nM
- IC50 [4]: 1100 nM
Compound: O=C(O)C[C@H](O)C[C@H](O)/C=C/c1c2c(nn1-c1ccc(F)cc1)C(Cc1ccc(Cl)cc1)CCC2 (stereo not given in full)

- IC50 [7]: 78 nM
- IC50 [8]: 28 nM
Compound: Cc1ccc(CC2CCCc3c2nn(-c2ccc(F)cc2)c3/C=C/[C@@H](O)C[C@@H](O)CC(=O)O)cc1 (stereo not given in full)

- IC50 [9]: 200 nM
- IC50 [10]: 400 nM
Compound: O=C(O)C[C@H](O)C[C@H](O)/C=C/c1c2c(nn1-c1ccc(F)cc1)C(Cc1ccc(F)cc1)CCC2 (stereo not given in full)

- IC50 [11]: 170 nM
- IC50 [12]: 68 nM
Compound: O=C(O)C[C@H](O)C[C@H](O)/C=C/c1c2c(nn1-c1ccc(F)cc1)C(Cc1ccccc1)CCC2 (stereo not given in full)

- IC50 [15]: 5300 nM
Compound: O=C(O)C[C@H](O)C[C@H](O)/C=C/c1c2c(nn1-c1ccc(F)cc1)CCCC2

- IC50 [16]: 3600 nM
Compound: O=C(O)C[C@H](O)C[C@H](O)/C=C/c1c2c(nn1-c1ccc(F)cc1)CCCCC2

- IC50 [17]: 3400 nM
Compound: CCCC1CCCc2c1nn(-c1ccc(F)cc1)c2/C=C/[C@@H](O)C[C@@H](O)CC(=O)O (stereo not given in full)

- IC50 [18]: 540 nM
- IC50 [19]: 1700 nM
Compound: O=C(O)C[C@H](O)C[C@H](O)/C=C/c1c2c(nn1-c1ccc(F)cc1)C(CCc1ccccc1)CCC2 (stereo not given in full)

- IC50 [20]: 2100 nM
Compound: CC1CCCc2c1nn(-c1ccc(F)cc1)c2/C=C/[C@@H](O)C[C@@H](O)CC(=O)O (stereo not given in full)

The remaining lines, values behind:

Compound: COc1cccc(CC2CCCc3c2nn(-c2ccc(F)cc2)c3/C=C/[C@@H](O)C[C@@H](O)CC(=O)O)c1 (stereo not given in full)
- IC50 [1]: 35 nM
- IC50 [2]: 1200 nM

Compound: CC[C@H](C)C(=O)O[C@H]1C[C@@H](C)C=C2C=C[C@H](C)[C@H](CC[C@@H]3C[C@@H](O)CC(=O)O3)[C@H]21 [LOVASTATIN]
- IC50 [5]: 79 nM
- IC50 [6]: 400 nM

Compound: O=C(O)C[C@H](O)C[C@H](O)/C=C/c1c2c(nn1-c1ccc(F)cc1)C(Cc1ccc3ccccc3c1)CCC2 (stereo not given in full)
- IC50 [13]: 9 nM
- IC50 [14]: 330 nM

Compound: CC(C)n1c(/C=C/C(O)CC(O)CC(=O)O)c(-c2ccc(F)cc2)c2ccccc21 (stereo not given) [FLUVASTATIN SODIUM]
- IC50 [21]: 79 nM

Compound: O=C(O)C[C@H](O)C[C@H](O)/C=C/c1c2c(nn1-c1ccc(F)cc1)C(C/C=C/c1ccccc1)CCC2 (stereo not given in full)
- IC50 [22]: 82 nM
- IC50 [23]: 1000 nM

Compound: COc1ccc(CC2CCCc3c2nn(-c2ccc(F)cc2)c3/C=C/[C@@H](O)C[C@@H](O)CC(=O)O)cc1OC (stereo not given in full)
- IC50 [24]: 320 nM
- IC50 [25]: 3600 nM
